ChEMBL document CHEMBL4732152, “Flavonoids from Woodfordia fruticosa as potential SmltD inhibitors in the alternative biosynthetic pathway of peptidoglycan” (Bioorg Med Chem Lett, 2021)
The source made the active and inactive calls. No cut-off for these calls is given here. *1 amine or outer side, *2 acyl side, *3 side chain or, on linkers, in order; H or OH if unused. Where a SMILES comes first, the peptide text is derived from it. Bridges are numbered along the chain shown (N, C = ends). Roman numbers before positions name the chains, in order. [ ]: non-standard residue; d: D form. Actinocin(1to9) = Cc1c2oc3c(C)ccc(C(=O)[*:2])c3nc-2c(C(=O)[*:1])c(N)c1=O; NMeV = CN[C@H](C(=O)O)C(C)C; Sar = CNCC(=O)O

Experiments:
[1] = Inhibition of Stenotrophomonas maltophilia SmltD using UDP-MurNAc-L-Ala[…] as substrate in presence of ATP incubated for 5 mins by HPLC
[2] = system: Stenotrophomonas maltophilia; experiment: Non-Competitive inhibition of Stenotrophomonas maltophilia SmltD using […] as substrate by Dixon plot analysis
[3] = Competitive inhibition of Stenotrophomonas maltophilia SmltD assessed as inhibition constant using ATP as substrate by Dixon plot analysis
[4] = system: Stenotrophomonas maltophilia; experiment: Non-Competitive inhibition of Stenotrophomonas maltophilia SmltD using UDP-MurNAc-L-Ala[…] as substrate by Dixon plot analysis

SMILES	IC50 ([1]; read-out: IC50) [µM]	also measured
O=C(O)c1cc(O)c(O)c(O)c1 [GALLIC ACID]	2860	
OC[C@H]1O[C@@H](O)[C@H](O)[C@@H](O)[C@@H]1O [beta-D-Glucose]		IC50 [1]: Not Active
Cc1c2oc3c(C)ccc(C(=O)N[C@@H]4C(=O)N[C@H](C(C)C)C(=O)N5CCC[C@H]5C(=O)N(C)CC(=O)N(C)[C@@H](C(C)C)C(=O)O[C@@H]4C)c3nc-2c(C(=O)N[C@@H]2C(=O)N[C@H](C(C)C)C(=O)N3CCC[C@H]3C(=O)N(C)CC(=O)N(C)[C@@H](C(C)C)C(=O)O[C@@H]2C)c(N)c1=O [DACTINOMYCIN] (I: T[dV]P[Sar][NMeV] / II: T[dV]P[Sar][NMeV]; ester I:1-I:C, II:1-II:C; linker I:N-II:N via Actinocin(1to9))	14600	
O=C(OC[C@H]1O[C@@H](Oc2c(-c3ccc(O)cc3)oc3cc(O)cc(O)c3c2=O)[C@H](O)[C@@H](O)[C@@H]1O)c1cc(O)c(O)c(O)c1	460	inhibition [2]: Active; Ki [3]: 110 µM; inhibition [4]: Active
O[C@H]1[C@H](O)[C@@H](O)OC[C@H]1O		IC50 [1]: Not Active

Now from value to molecule, other results behind:

IC50 ([1]; read-out: IC50) [µM]	SMILES	also measured
2050	O=c1c(O[C@H]2OC[C@@H](O)[C@@H](O)[C@@H]2O)c(-c2ccc(O)cc2)oc2cc(O)cc(O)c12	
2360	O=c1c(O)c(-c2ccc(O)cc2)oc2cc(O)cc(O)c12 [KAEMPFEROL]	
1180	O=c1c(O[C@@H]2O[C@H](CO)[C@@H](O)[C@H](O)[C@H]2O)c(-c2ccc(O)cc2)oc2cc(O)cc(O)c12 [ASTRAGALIN]	
